Measurements published in patent US20260262643A1, “HERBICIDAL BENZOXAZINES” (FMC CORPORATION, priority 2022, published 2026).

Key:
wheat [1] = test: Test C postemergence; format: in vivo, Triticum aestivum; settings: Postemergence, 125 g ai/ha; 0 to 100 scale (0 no effect, 100 complete control), 10 days
Outline: (§1)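 Soil-applied (pre) and foliar (post, 1–2 leaf, 2–10 cm) sprays; surfactant-containing non-phytotoxic solvent vehicle; loam/sand substrate. Readout: visual % control at 10 d, greenhouse, versus untreated.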

blackgrass [2] = test: Test C postemergence; format: in vivo, Alopecurus myosuroides; settings: 10 days, 0 to 100 scale (0 no effect, 100 complete control)
Outline: as §1

sedge, umbrella = test: Test D flooded paddy test; format: in vivo, Cyperus difformis; settings: 250 g ai/ha, applied to paddy water, visual rating after 13 to 14 days, scale 0 to 100 (0 no effect, 100 complete control)
Outline: (§2)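 Compounds go straight into paddy water over 2-leaf plants in pots flooded to 3 cm. Greenhouse holding lasts 13 to 14 days. Injury is scored by eye against controls from 0 (none) to 100 (complete control).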

oat, wild [3] = test: Test C postemergence; format: in vivo, Avena fatua; settings: 10 days, 0 to 100 scale (0 no effect, 100 complete control)
Outline: as §1

barnyardgrass [4] = test: Test D flooded paddy test; format: in vivo, Echinochloa crus-galli; settings: 250 g ai/ha, applied to paddy water, visual rating after 13 to 14 days, scale 0 to 100 (0 no effect, 100 complete control)
Outline: as §2

galium = test: Test C postemergence; format: in vivo, Galium aparine; settings: 10 days, 0 to 100 scale (0 no effect, 100 complete control)
Outline: as §1

ragweed [5] = test: Test C postemergence; format: in vivo, Ambrosia artemisiifolia; settings: Postemergence, 125 g ai/ha; 0 to 100 scale (0 no effect, 100 complete control), 10 days
Outline: as §1

wheat [6] = test: Test C preemergence; format: in vivo, Triticum aestivum
Outline: as §1

ducksalad = test: Test D flooded paddy test; format: in vivo, Heteranthera limosa; settings: 250 g ai/ha, applied to paddy water, visual rating after 13 to 14 days, scale 0 to 100 (0 no effect, 100 complete control)
Outline: as §2

ryegrass, Italian [7] = test: Test C preemergence; format: in vivo, Lolium multiflorum
Outline: as §1

kochia [8] = test: Test C postemergence; format: in vivo, Bassia scoparia; settings: 10 days, 0 to 100 scale (0 no effect, 100 complete control)
Outline: as §1

barnyardgrass [9] = test: Test C preemergence; format: in vivo, Echinochloa crusgalli
Outline: as §1

horseweed = test: Test C postemergence; format: in vivo, Erigeron canadensis; settings: 10 days, 0 to 100 scale (0 no effect, 100 complete control)
Outline: as §1

kochia [10] = test: Test C preemergence; format: in vivo, Bassia scoparia
Outline: as §1

oat, wild [11] = test: Test C preemergence; format: in vivo, Avena fatua
Outline: as §1

pigweed, palmer [12] = test: Test C postemergence; format: in vivo, Amaranthus palmeri; settings: 10 days, 0 to 100 scale (0 no effect, 100 complete control)
Outline: as §1

blackgrass [13] = test: Test C preemergence; format: in vivo, Alopecurus myosuroides
Outline: as §1

soybean [14] = test: Test C postemergence; format: in vivo, Glycine max; settings: Postemergence, 125 g ai/ha; 0 to 100 scale (0 no effect, 100 complete control), 10 days
Outline: as §1

rice = test: Test D flooded paddy test; format: in vivo, Oryza sativa; settings: 250 g ai/ha, applied to paddy water, visual rating after 13 to 14 days, scale 0 to 100 (0 no effect, 100 complete control)
Outline: as §2

pigweed, palmer [15] = test: Test C preemergence; format: in vivo, Amaranthus palmeri
Outline: as §1

corn [16] = test: Test C postemergence; format: in vivo, Zea mays; settings: 10 days, 0 to 100 scale (0 no effect, 100 complete control)
Outline: as §1

corn [17] = test: Test C preemergence; format: in vivo, Zea mays
Outline: as §1

green foxtail [18] = test: Test C postemergence; format: in vivo, Setaria viridis; settings: 10 days, 0 to 100 scale (0 no effect, 100 complete control)
Outline: as §1

green foxtail [19] = test: Test C preemergence; format: in vivo, Setaria viridis
Outline: as §1

soybean [20] = test: Test C preemergence; format: in vivo, Glycine max
Outline: as §1

ryegrass, Italian [21] = test: Test C postemergence; format: in vivo, Lolium multiflorum; settings: Postemergence, 125 g ai/ha; 0 to 100 scale (0 no effect, 100 complete control), 10 days
Outline: as §1

ragweed [22] = test: Test C preemergence; format: in vivo, Ambrosia artemisiifolia
Outline: as §1

barnyardgrass [23] = test: Test C postemergence; format: in vivo, Echinochloa crusgalli; settings: 10 days, 0 to 100 scale (0 no effect, 100 complete control)
Outline: as §1

[24] = 500 g ai/ha, preemergence, 0 to 100 scale (0 no effect, 100 complete control)
[25] = Preemergence, 125 g ai/ha, 0 to 100 scale, 0 no effect, 100 complete control

COC[C@H]1CN(C(=O)c2cc(-n3cnc(C(C)C)n3)cc3c2OCCO3)c2cccc(Cl)c2O1 [Compound 395]
Plant response rating, Wheat (wheat [1]): 40
Plant response rating, Blackgrass (blackgrass [2]; 500 g ai/ha, postemergence): 90
Plant response rating, Blackgrass (blackgrass [2]; Postemergence, 125 g ai/ha): 40
Plant response rating, Sedge, Umbrella (Flood) (sedge, umbrella): 0
Plant response rating, Oat, Wild (oat, wild [3]; 500 g ai/ha, postemergence): 60
Plant response rating, Oat, Wild (oat, wild [3]; Postemergence, 125 g ai/ha): 50
Plant response rating, Barnyardgrass (Flood) (barnyardgrass [4]): 0
Plant response rating, Galium (galium; 500 g ai/ha, postemergence): 100
Plant response rating, Galium (galium; Postemergence, 125 g ai/ha): 100
Plant response rating, Ragweed (ragweed [5]): 70
Wheat plant response rating (wheat [6]; [24]): 80
Plant response rating, Wheat (wheat [6]; [25]): 30
Plant response rating, Ducksalad (Flood) (ducksalad): 0
Ryegrass, Italian plant response rating (ryegrass, Italian [7]; [24]): 90
Plant response rating, Ryegrass, Italian (ryegrass, Italian [7]; [25]): 80
Plant response rating, Kochia (kochia [8]; 500 g ai/ha, postemergence): 100
Plant response rating, Kochia (kochia [8]; Postemergence, 125 g ai/ha): 90
Barnyardgrass plant response rating (barnyardgrass [9]; [24]): 100
Plant response rating, Barnyardgrass (barnyardgrass [9]; [25]): 80
Plant response rating, Horseweed (horseweed; 500 g ai/ha, postemergence): 60
Plant response rating, Horseweed (horseweed; Postemergence, 125 g ai/ha): 50
Kochia plant response rating (kochia [10]; [24]): 100
Plant response rating, Kochia (kochia [10]; [25]): 100
Oat, Wild plant response rating (oat, wild [11]; [24]): 90
Plant response rating, Oat, Wild (oat, wild [11]; [25]): 50
Plant response rating, Pigweed, Palmer (pigweed, palmer [12]; 500 g ai/ha, postemergence): 100
Plant response rating, Pigweed, Palmer (pigweed, palmer [12]; Postemergence, 125 g ai/ha): 90
Blackgrass plant response rating (blackgrass [13]; [24]): 90
Plant response rating, Blackgrass (blackgrass [13]; [25]): 50
Plant response rating, Soybean (soybean [14]): 100
Plant response rating, Rice (Flood) (rice): 0
Pigweed, Palmer plant response rating (pigweed, palmer [15]; [24]): 100
Plant response rating, Pigweed, Palmer (pigweed, palmer [15]; [25]): 100
Plant response rating, Corn (corn [16]; 500 g ai/ha, postemergence): 90
Plant response rating, Corn (corn [16]; Postemergence, 125 g ai/ha): 70
Corn plant response rating (corn [17]; [24]): 50
Plant response rating, Corn (corn [17]; [25]): 30
Plant response rating, Foxtail, Green (green foxtail [18]; 500 g ai/ha, postemergence): 80
Plant response rating, Foxtail, Green (green foxtail [18]; Postemergence, 125 g ai/ha): 70
Foxtail, Green plant response rating (green foxtail [19]; [24]): 100
Plant response rating, Foxtail, Green (green foxtail [19]; [25]): 100
Soybean plant response rating (soybean [20]; [24]): 100
Plant response rating, Soybean (soybean [20]; [25]): 70
Plant response rating, Ryegrass, Italian (ryegrass, Italian [21]): 60
Ragweed plant response rating (ragweed [22]; [24]): 90
Plant response rating, Ragweed (ragweed [22]; [25]): 90
Plant response rating, Barnyardgrass (barnyardgrass [23]; 500 g ai/ha, postemergence): 70
Plant response rating, Barnyardgrass (barnyardgrass [23]; Postemergence, 125 g ai/ha): 40
